In PubChem BioAssay AID2305 (GlaxoSmithKline (GSK), 2010):

system: P. falciparum 3D7 growth, pLDH absorbance; test: blood-stage malaria parasite growth potency – strain 3D7, dose response (AID 2305)

SMILES | IC50
COc1ccccc1-c1cccc(-c2cccc(NC(=O)c3ccc([N+](=O)[O-])o3)c2)n1 | 600 nM
CCC(C)CN1C(=O)C(c2ccccc2)(c2ccccc2)N=C1N (configuration not stated) | 710 nM
CCCN(CCC)CCCNc1ccc(C(=O)Nc2ccc(C)c(F)c2)cc1[N+](=O)[O-] | 540 nM
COc1ccccc1-c1cccc2c(NC(=O)Nc3ccc4nccc(N5CCN(C)CC5)c4c3)ccnc12 | 1000 nM
CN(c1ccc2c(c1)nc(NCc1ccccc1)n2C)c1ccnc(Nc2ccc(CS(C)(=O)=O)cc2)n1 | 840 nM
CCC[C@@H]([C@@H](CC1CCCCC1)C(=O)N[C@H](C(=O)Nc1nccs1)C(C)(C)SC)N(O)C=O | 150 nM
CCN(CC)CCN(Cc1ccc(-c2ccc(C(F)(F)F)cc2)cc1)C(=O)Cn1c(CCc2cc(F)c(F)cc2F)nc(=O)c2ccccc21 | 720 nM
O=C(/C=C/c1ccc2ccccc2c1)NC1CCC(CN2CCC(c3c[nH]c4ccccc34)CC2)CC1 (configuration not stated) | 730 nM
Cc1nc(N)nc(N)c1-c1cccc(Cl)c1 | 1170 nM
CC(C)N(CCOc1ccc2c(c1)N(C(=O)Nc1cc(Br)cc(C(F)(F)F)c1)CC2)C(C)C | 110 nM
O=C(/C=C/c1ccc(Cl)cc1)NCCCCCN1CCC(C(=O)Nc2ccc(Cl)c(Cl)c2)CC1 | 770 nM
O=C(NC1CCC(N2CCC(c3ccccc3C(F)(F)F)CC2)CC1)c1cc2ccccc2[nH]1 (configuration not stated) | 520 nM
Cc1cc(NCCC(=O)NCCOc2ccccc2)nc(NCCc2ccccc2)n1 | 1230 nM
COc1cc(C(=O)NC2CC(C)(C)NC(C)(C)C2)ccc1-c1cc2cc(Cl)c(Cl)cc2[nH]1 | 720 nM
COc1cc(C)cc(CN2CCC(Cc3ccccc3)CC2)c1O | 1020 nM
O=C(Nc1ccccc1)Nc1cccc(-c2cccc(-c3nc4ccc(F)cc4[nH]3)c2)c1 | 180 nM
O=C(NC1CCN(Cc2ccccc2)CC1)c1cccc(-c2nc3ccc(Cl)cc3[nH]2)c1 | 860 nM
CN(C)C(=O)CC(=O)NCc1c(Cl)cccc1Cl | 200 nM
O=[N+]([O-])c1cccc(NC(=S)N2CCCN(Cc3ccc(C(F)(F)F)cc3)CC2)c1 | 1200 nM
O=C(NCc1ccc(Cl)c(Cl)c1)c1ccc(-c2nc3cc(F)c(F)cc3[nH]2)cc1 | 1050 nM
Cc1ccc(C2(CN3CCC(NC(=O)c4ccn[nH]4)CC3)CCCCC2)cc1 | 220 nM

SMILES | IC50
O=[N+]([O-])c1cc(C(c2ccc(O)c([N+](=O)[O-])c2)C(Cl)(Cl)Cl)ccc1O | 730 nM
O=C(Cc1ccccc1)NC(CCN1CCC(O)(c2cccc(C(F)(F)F)c2)CC1)c1ccc(Cl)c(Cl)c1 (configuration not stated) | 860 nM
CC(Cc1ccc(-c2nc3ccccc3[nH]2)cc1)NCC(O)c1cccc(C(F)(F)F)c1 (configuration not stated) | 350 nM
O=[N+]([O-])c1ccc(Nc2nc(NN=Cc3cccc(O)c3)nc(N3CCCC3)n2)cc1 | 1080 nM
COc1ccccc1C1CCN(C2CCC(NC(=O)/C=C/c3cccc(Cl)c3F)CC2)CC1 (configuration not stated) | 1290 nM
CCN(CC)CC(O)CNc1c2ccc([N+](=O)[O-])cc2nc2cc(OC)c(OC)cc12 (configuration not stated) | 270 nM
CCCNC(=O)c1cncc(-c2ccc(CNC(CC)c3ccccc3)cc2)c1 (configuration not stated) | 880 nM
O=C(NCCc1ccccc1)N(Cc1ccccc1-c1ccc(CNCCc2ccccc2)cc1)C1CCN(Cc2ccccc2)CC1 | 720 nM
O=C(Cn1c(=O)cnc2ccccc21)Nc1cccc(C(=O)Nc2cccc(C(F)(F)F)c2)c1 | 280 nM
CCCc1ccc(-c2csc(NC(=O)c3ccc([N+](=O)[O-])o3)n2)cc1 | 1210 nM
COc1ccc(-c2cc(C(F)(F)F)n3ncc(C(=O)Nc4cc(C)ccc4O)c3n2)cc1OC | 130 nM
CCc1cn2c3c(cc(C(=O)N[C@@H](Cc4ccccc4)[C@H](O)CNC(C)(C)CCCC(C)C)cc13)N(C)S(=O)(=O)C2 | 240 nM
O=C(NCCCCN1CCC[C@@H]2c3cccc(O)c3CC[C@@H]21)c1ccc(-c2ccccc2)cc1 | 1170 nM
Cc1sc2ccc(Cl)cc2c1S(=O)(=O)Nc1ccc2nccc(N3C[C@@H](C)N[C@@H](C)C3)c2c1 | 110 nM
O=C(/C=C/c1cccc2c1OCO2)Nc1ccnc2ccncc12 | 900 nM
COc1cc2nc(N3CCC(CNC(=O)c4ccc(-c5ccc(C#N)cc5C)cc4)CC3)nc(N)c2cc1OC | 180 nM
COc1cc2c(C3CCN(CC4CCN(C(=O)/C=C/c5ccc(Cl)c(Cl)c5)CC4)CC3)c[nH]c2cn1 | 730 nM
Fc1ccc2nc(-c3ccc(-c4ccc(CNCc5cnn(-c6ccccc6)n5)cc4)cc3)[nH]c2c1 | 540 nM
COc1ccc(C(=O)N2CCC3(CC2)C(=O)N(CC(=O)NC2CCCCC2)CN3c2ccccc2)c(OC)c1 | 220 nM
CCc1ccc(NC(=O)c2ccc(CN3CCCN(Cc4cccc(Cl)c4)CC3)cc2)cc1 | 1110 nM
CN(C)C(=O)c1ccc(CN(Cc2ccc3c(c2)OCCO3)Cc2ccc3c(c2)OCO3)cc1 | 180 nM

SMILES | IC50
CCN1CCC(N(Cc2ccc(-c3ccc(Cl)cc3)cc2)C(=O)Cn2c(CCc3cccc(F)c3F)cc(=O)c3ccccc32)CC1 | 700 nM
O=C1NC(c2ccc(N3CCCCCC3)cc2)Nc2ccccc21 (configuration not stated) | 570 nM
COc1ccccc1C(C)NCC(=O)Nc1cccc(C(=O)Nc2cccc(C(F)(F)F)c2)c1 (configuration not stated) | 1530 nM
CCOc1ccc2nc(C)cc(NN=Cc3ccncc3)c2c1 | 990 nM
CCOC(C(=O)OCC1CCCN1C(C)C)(c1ccccc1)c1ccccc1 (configuration not stated) | 760 nM
COc1ccc(NC(C)C(=O)Nc2ccc(Br)cc2)cc1S(=O)(=O)N1CCCCC1 (configuration not stated) | 220 nM
COc1ccc(NC(=O)Nc2cccc(-c3cccc(-c4nc5ccccc5[nH]4)c3)c2)cc1 | 310 nM
C=CCOC(=O)N1CCC(CNCc2ccc(-c3ccc(-c4nc5ccccc5[nH]4)s3)cc2)C1 (configuration not stated) | 230 nM
Oc1ccc2[nH]c(-c3ccc(F)cc3F)nc2c1CN1CCC(O)(c2ccccc2)CC1 | 840 nM
C=C(C)Cn1cc(C2CCN(CCN3CCC(CNC(=O)c4ccc(-c5ccc(C#N)cc5)cc4)CC3)CC2)c2ccccc21 | 430 nM
CCN1CCN(CCCNc2c3ccccc3nc3ccccc23)CC1 | 800 nM
CC(CNC(=O)c1cc2c(Cl)cc(Cl)cc2[nH]1)CNc1cc(=O)c2ccccc2[nH]1 (configuration not stated) | 720 nM
O=C(Nc1ccc(C(=O)Oc2ccc3ccccc3c2)cc1)N[C@@H](Cc1ccc(O)cc1)C(=O)NC1CCN(Cc2ccc(O)cc2)C1 (some centres not stated) | 1060 nM
Nc1ncc(-c2ccccc2)cc1/C=C/c1cccnc1 | 1120 nM
CC(C)(C)Oc1ccc(NC(=O)c2ccccc2O)cc1 | 1010 nM
N#Cc1c(N2CCN(c3ccc(F)cc3)CC2)nc(N)c2c(N)nc3c(c12)CC(=O)N3C1CC1 | 840 nM
CC(C)[C@H](NC(=O)c1ccc(O)c(-c2ccc(Cl)c(Cl)c2)c1)C(=O)NCCN(C)C | 1050 nM
CN(C)c1ccc(C=Cc2nc(=O)c3ccccc3o2)cc1 | 40 nM
Nc1nc(N)c2c(ccc3c2ccn3C2C=CCCC2)n1 (configuration not stated) | 130 nM
Nc1ncc(-c2ccc(S(=O)(=O)Nc3ccc(C(=O)N[C@@H](CCC(=O)O)C(=O)O)cc3)cc2)c(=O)[nH]1 | 800 nM
